Activity calls are given as the source filed them. The calls are words filed in the database; no cut-off is given here.
Tests used:
[1] = Cytotoxicity against human SW1736 cells by SRB assay; format: functional, cell-based; settings: SW-1736
[2] = Cytotoxicity against mouse NIH/3T3 cells by SRB assay; format: cell-based; settings: NIH3T3
[3] = Cytotoxicity against human DLD1 cells by SRB assay; format: functional, cell-based; settings: DLD-1
A2780 = test: Cytotoxicity against human A2780 cells by SRB assay; format: functional, cell-based
[4] = Cytotoxicity against human A253 cells by SRB assay; format: functional, cell-based
A549 = test: Cytotoxicity against human A549 cells by SRB assay; format: functional, cell-based
[5] = Cytotoxicity against human Lipo cells by SRB assay; format: functional, cell-based
[6] = Cytotoxicity against human 518A2 cells by SRB assay; format: functional, cell-based
MCF7 = test: Cytotoxicity against human MCF7 cells by SRB assay; format: functional, cell-based
8505C = test: Cytotoxicity against human 8505C cells by SRB assay; format: functional, cell-based
518A2 [7] = test: Induction of apoptosis in human 518A2 cells assessed as normal cells at 35 uM after 48 or 72 hrs by annexin V-FITC/propidium iodide staining-based flow cytometry; format: functional
518A2 [8] = test: Induction of apoptosis in human 518A2 cells assessed as apoptotic ells at 35 uM after 48 or 72 hrs by annexin V-FITC/propidium iodide staining-based flow cytometry; format: functional
518A2 [9] = test: Induction of apoptosis in human 518A2 cells assessed as secondary necrotic cells at 35 uM after 24 hrs by fluorescence microscopy; format: functional, cell-based
518A2 [10] = test: Induction of apoptosis in human 518A2 cells assessed as necrotic cells at 35 uM after 48 or 72 hrs by annexin V-FITC/propidium iodide staining-based flow cytometry; format: functional
518A2 [11] = test: Induction of apoptosis in human 518A2 cells assessed as secondary necrotic cells at 35 uM after 48 or 72 hrs by annexin V-FITC/propidium iodide staining-based flow cytometry; format: functional

CCOC(=O)C(C[N+](=O)[O-])c1ccc(OC)cc1 (stereo not given)
IC50 [1]: > 30 µM
IC50 [2]: > 30 µM
IC50 [3]: > 30 µM
IC50 (A2780): > 30 µM
IC50 [4]: > 30 µM
IC50 (A549): > 30 µM
IC50 [5]: > 30 µM
IC50 [6]: > 30 µM
IC50 (MCF7): > 30 µM
IC50 (8505C): > 30 µM

O=C(Cc1ccccc1)C(C[N+](=O)[O-])c1ccc(Cl)cc1 (stereo not given)
IC50 [1]: 23.9 µM
IC50 [2]: 9.2 µM
IC50 [3]: 22.5 µM
IC50 (A2780): 12.1 µM
IC50 [4]: 21.4 µM
IC50 (A549): > 30 µM
IC50 [5]: 28.9 µM
IC50 [6]: 23.9 µM
IC50 (MCF7): 18.2 µM
IC50 (8505C): > 30 µM

CCOC(=O)C(C)(C[N+](=O)[O-])c1ccc(Cl)cc1 (stereo not given)
IC50 [1]: > 30 µM
IC50 [2]: > 30 µM
IC50 [3]: > 30 µM
IC50 (A2780): > 30 µM
IC50 [4]: > 30 µM
IC50 (A549): > 30 µM
IC50 [5]: > 30 µM
IC50 [6]: > 30 µM
IC50 (MCF7): > 30 µM
IC50 (8505C): > 30 µM

CCOC(=O)C(C[N+](=O)[O-])c1ccc(C)cc1 (stereo not given)
IC50 [1]: > 30 µM
IC50 [2]: > 30 µM
IC50 [3]: > 30 µM
IC50 (A2780): > 30 µM
IC50 [4]: > 30 µM
IC50 (A549): > 30 µM
IC50 [5]: > 30 µM
IC50 [6]: > 30 µM
IC50 (MCF7): > 30 µM
IC50 (8505C): > 30 µM

CCOC(=O)C(C[N+](=O)[O-])c1ccccc1Cl (stereo not given)
IC50 [1]: > 30 µM
IC50 [2]: > 30 µM
IC50 [3]: > 30 µM
IC50 (A2780): 9.9 µM
IC50 [4]: > 30 µM
IC50 (A549): > 30 µM
IC50 [5]: > 30 µM
IC50 [6]: > 30 µM
IC50 (MCF7): > 30 µM
IC50 (8505C): > 30 µM

CCOC(=O)C(C[N+](=O)[O-])c1ccc(F)cc1 (stereo not given)
IC50 [1]: > 30 µM
IC50 [2]: > 30 µM
IC50 [3]: > 30 µM
IC50 (A2780): > 30 µM
IC50 [4]: > 30 µM
IC50 (A549): > 30 µM
IC50 [5]: > 30 µM
IC50 [6]: > 30 µM
IC50 (MCF7): > 30 µM
IC50 (8505C): > 30 µM

CCOC(=O)C(CN)c1ccc(Cl)cc1 (stereo not given)
IC50 [1]: > 30 µM
IC50 [2]: 25.7 µM
IC50 [3]: > 30 µM
IC50 (A2780): 22.3 µM
IC50 [4]: > 30 µM
IC50 (A549): > 30 µM
IC50 [5]: > 30 µM
IC50 [6]: > 30 µM
IC50 (MCF7): > 30 µM
IC50 (8505C): > 30 µM

NC(=O)C(C[N+](=O)[O-])c1ccc(Cl)cc1 (stereo not given)
IC50 [1]: > 30 µM
IC50 [2]: > 30 µM
IC50 [3]: > 30 µM
IC50 (A2780): > 30 µM
IC50 [4]: > 30 µM
IC50 (A549): > 30 µM
IC50 [5]: > 30 µM
IC50 [6]: > 30 µM
IC50 (MCF7): > 30 µM
IC50 (8505C): > 30 µM

CN(C)C(=O)C(C[N+](=O)[O-])c1ccc(Cl)cc1 (stereo not given)
IC50 [1]: > 30 µM
IC50 [2]: > 30 µM
IC50 [3]: > 30 µM
IC50 (A2780): > 30 µM
IC50 [4]: > 30 µM
IC50 (A549): > 30 µM
IC50 [5]: > 30 µM
IC50 [6]: > 30 µM
IC50 (MCF7): > 30 µM
IC50 (8505C): > 30 µM

CCOC(=O)C(C[N+](=O)[O-])c1cccc(C(F)(F)F)c1 (stereo not given)
IC50 [1]: 4.7 µM
IC50 [2]: 10.2 µM
IC50 [3]: 8.2 µM
IC50 (A2780): 6.3 µM
IC50 [4]: 7.2 µM
IC50 (A549): 13.6 µM
IC50 [5]: 10.9 µM
IC50 [6]: 8.6 µM
IC50 (MCF7): 7.6 µM
IC50 (8505C): 20.7 µM

CCOC(=O)C(C[N+](=O)[O-])c1ccc(C(F)(F)F)cc1 (stereo not given)
IC50 [1]: 6.3 µM
IC50 [2]: 9.7 µM
IC50 [3]: 11 µM
IC50 (A2780): 6.6 µM
IC50 [4]: 9.8 µM
IC50 (A549): 9.9 µM
IC50 [5]: 15.2 µM
IC50 [6]: 15.2 µM
IC50 (MCF7): 6.7 µM
IC50 (8505C): 13.8 µM

CCOC(=O)C(C[N+](=O)[O-])c1cccc(Cl)c1 (stereo not given)
IC50 [1]: 8.3 µM
IC50 [2]: 21.1 µM
IC50 [3]: 14.5 µM
IC50 (A2780): 14.4 µM
IC50 [4]: 10.6 µM
IC50 (A549): 3.5 µM
IC50 [5]: 19.5 µM
IC50 [6]: 7.3 µM
IC50 (MCF7): 17.9 µM
IC50 (8505C): 14.9 µM

COC(=O)C(C[N+](=O)[O-])c1ccc(Cl)cc1 (stereo not given)
IC50 [1]: 5.8 µM
IC50 [2]: 2.1 µM
IC50 [3]: 5.2 µM
IC50 (A2780): 2.5 µM
IC50 [4]: 5.4 µM
IC50 (A549): 10.5 µM
IC50 [5]: 8.7 µM
IC50 [6]: 5.8 µM
IC50 (MCF7): 3.4 µM
IC50 (8505C): 11.6 µM

CCOC(=O)C(C[N+](=O)[O-])c1cccc(OC(F)(F)F)c1 (stereo not given)
IC50 [1]: 16.6 µM
IC50 [2]: > 30 µM
IC50 [3]: > 30 µM
IC50 (A2780): 2.2 µM
IC50 [4]: 11.8 µM
IC50 (A549): 19.9 µM
IC50 [5]: > 30 µM
IC50 [6]: 14.5 µM
IC50 (MCF7): > 30 µM
IC50 (8505C): 22.1 µM

CCOC(=O)C(C[N+](=O)[O-])c1ccccc1 (stereo not given)
IC50 [1]: > 30 µM
IC50 [2]: > 30 µM
IC50 [3]: > 30 µM
IC50 (A2780): > 30 µM
IC50 [4]: > 30 µM
IC50 (A549): > 30 µM
IC50 [5]: > 30 µM
IC50 [6]: > 30 µM
IC50 (MCF7): > 30 µM
IC50 (8505C): > 30 µM

C=C(C#N)c1ccc(Cl)cc1
IC50 [1]: > 30 µM
IC50 [2]: 23.5 µM
IC50 [3]: > 30 µM
IC50 (A2780): 15.4 µM
IC50 [4]: > 30 µM
IC50 (A549): > 30 µM
IC50 [5]: > 30 µM
IC50 [6]: > 30 µM
IC50 (MCF7): 14.2 µM
IC50 (8505C): > 30 µM

CCOC(=O)C(C[N+](=O)[O-])c1ccc(Cl)cc1 (stereo not given)
IC50 [1]: > 30 µM
IC50 [2]: 7.7 µM
IC50 [3]: 10.9 µM
Activity (518A2 [7]): 22.72%
IC50 (A2780): 1.6 µM
IC50 [4]: > 30 µM
IC50 (A549): 14.9 µM
Activity (518A2 [8]): 3.224%
Activity (518A2 [9]): Active
IC50 [5]: 19.2 µM
IC50 [6]: 17.3 µM
Activity (518A2 [10]): 2.883%
IC50 (MCF7): 22.8 µM
Activity (518A2 [11]): 12.222%
IC50 (8505C): > 30 µM
